# Experimental data published in patent US20190064146A1, “IMMUNE CELLS HAVING INCREASED IMMUNITY OR RESISTANCE TO AN IMMUNOSUPPRESSIVE CYTOKINE AND USE OF THE SAME” (Innate Tumor Immunity, INC., priority 2015, published 2019).
# Test system: EG.7 tumor cells
# Assay: Adoptive transfer of in vitro activated OT-1 CD8+ T cells into mice with established EG.7 flank tumors
# Type: in vivo
# Conditions: OT-1 splenocytes activated with OVA antigen 1 μg/mL plus TGF-β 10 ng/mL and IL-1β 10 ng/mL for 5 days; 5×10^6 CD8+ cells intraperitoneally into C57BL/6J mice with 7-day EG.7 tumors
# Description: To induce tumor, 1×10^6 EG.7 tumor cells, which expressed the OVA antigen, were injected subcutaneously on the flank of Black/6 mice. In this condition, after 7 days EG.7 cells from palpable tumors. To generate anti-tumor T cells, splenocytes from OT-1 mice, which have a transgenic TCR that recognize OVA antigen, were activated with OVA antigen (1 μg/mL) in the presence of TGF-β, or the presence of TGF-β and IL-1β. After 5 days CD8^+ cells were purified. […] Tumor volume was recorded 3 times a week until the end of the study. […]
# OT-1 mice were anesthetized and spleens were harvested and strained through a 70-um filter with PBS with 10% FBS. […] After washing, cells were counted and placed in tissue culture at a final concentration of 1×10^6 cells/mL. […]
# Tumors were established with subcutaneous flank injections of 1×10^6 cells suspended in 100 μL PBS. Tumors were measured three times a week and volumes were estimated using the formula 3.14×[largest diameter×(perpendicular diameter)^2]/6. […]
# The average tumor volumes of the combination treatment group over time was plotted and compared to control treated with vehicle. […] For statistical comparisons, Two-Way Anova with Bonferroni correction was calculated with GaphPrism software.
substance,measurement,value
IL-1β: exemplary NLRP3 activator; cytokine interleukin-1β added to T cell culture,CD8+ antitumor activity against established cancer (tumor volume),promotes CD8^+ antitumor activity against established cancer
